This note sets out measurements from US4792632A, “Bisacylphosphine oxides, the preparation and use thereof” (ESPE Fabrik Pharmazeutischer Praparate GmbH, priority 1984, dated 1988).

Data set [1] in a line: Uncured soft layer at surface of tooth filling composite. The conditions noted are these: 20 s exposure; for Soft Layer (amount of uncured material), upper surface: first of two values, upper surface of cylinder; for Soft Layer (amount of uncured material), lower surface: second of two values, lower surface of cylinder. The text has this: (§1) Tooth filling composites prepared according to Example 3 with the use of the photoinitiators listed in Table 3 are filled into cylinders (3 mm diameter, 3 mm height) in the middle of which the temperature can be measured during the polymerization. After 20 seconds of exposure to light from a commercial dental radiator (Elipar-Visio lamp/Espe) the structures are taken out and the soft layer is removed with toluene. From the weight difference the amount of uncured material in mg/cm^2 at the upper and lower surface of the cylinder is calculated. Moreover, the temperature course in time is followed by the thermosensor and a measuring instrument connected thereto.

Data set [2] is described as follows: Temperature course during polymerization of tooth filling composite. The conditions noted are these: 3 mm height, 20 s exposure; for Time for reaching Tmax: cylinder 3 mm diameter; for Tmax: middle of cylinder 3 mm diameter.
Description: as §1

The nature of data set [3]: UV/visible extinction at 400 nm. It is filed as physicochemical. Conditions: for Extinction at 400 nm: Table 2; for εmol at 400 nm: Table 1.
A short description of data set [4]: Attained thickness of cured layer of resin solution (curing depth) after storage, dental radiator 20 s. The conditions noted are these: for Layer Thickness after 1 month / Layer Thickness after 24 hrs: 0.5% by weight photoinitiator in solution I, 20 s exposure; for Layer Thickness after 1 month: stored 1 month in absence of light; for Layer Thickness after 24 hrs: stored 1 day in absence of light; for Thickness Loss: 24 hrs versus 1 month storage. How it is done:
70 parts by weight of bis-acryloxymethyl-tricyclo-[5.2.1.0.^2,6 ]-decane and
30 parts by weight of 2,2-bis-4-(3-methacryloxy-2-hydroxypropoxy)-phenylpropane (Bis-GMA)
are stirred while carefully heated until a clear solution I is formed.
The solution I is cooled to room temperature and 0.5% by weight of a photoinitiator (selected from those listed in Table 2) are added with stirring until the solution is clear.
The resulting solution is introduced into a cylinder (5 mm diameter, 8 mm length; for greater thicknesses 20 mm). Thereafter the solution is exposed to radiation from a commercial dental radiator (Elipar-Visio/Espe) for 20 seconds, the polymer is removed from the cylinder, the soft or gel-like, incompletely polymerized components are removed with a plastic spatula, and the attained thickness of the layer is measured. To this end the solutions are stored prior to polymerization for 1 day and 1 month, respectively, in the absence of light.

SMILES strings stand for the structures.

For the molecule `Cc1cc(C)c(C(=O)P(=O)(c2ccccc2)c2ccccc2)c(C)c1` [2,4,6-Trimethylbenzoyldiphenylphosphine oxide, reference compound], in data set [1], the “Soft Layer (amount of uncured material), upper surface” value is recorded as 1.8 mg/cm^2 and the “Soft Layer (amount of uncured material), lower surface” value is 2.0 mg/cm^2. Further, in data set [2], the “Time for reaching Tmax” value was 18 s and the Tmax was 39.8 °C.
Turning to `Cc1ccc(C)c(P(=O)(C(=O)c2c(Cl)cccc2Cl)c2cc(C)ccc2C)c1` [2,6-Dichlorobenzoyl-bis-(2,5-dimethylphenyl)phosphine oxide, reference compound], the “Extinction at 400 nm” value in data set [3] was determined as 440. Further, in data set [4], the “Layer Thickness after 1 month” value came out at 4.1 mm, the “Layer Thickness after 24 hrs” value was found to be 5.1 mm and the “Thickness Loss” value is reported as 20%.
With `O=C(c1c(Cl)cccc1Cl)P(=O)(c1ccccc1)c1ccccc1` [2,6-Dichlorobenzoyl-diphenylphosphine oxide, reference compound], the “Extinction at 400 nm” value in data set [3] turned out to be 190. In data set [4], the “Layer Thickness after 1 month” value worked out at 6.5 mm, the “Layer Thickness after 24 hrs” value was determined as 7 mm and the “Thickness Loss” value is 7%.
As to `Cc1ccc(C)c(P(=O)(C(=O)c2c(Cl)cccc2Cl)C(=O)c2c(Cl)cccc2Cl)c1` [Bis-(2,6-dichlorobenzoyl)-2,5-dimethylphenylphosphine Oxide], in data set [1], the “Soft Layer (amount of uncured material), upper surface” value is recorded as 1.0 mg/cm^2 and the “Soft Layer (amount of uncured material), lower surface” value is listed as 1.1 mg/cm^2. In data set [3], the “εmol at 400 nm” value is 580 and the “Extinction at 400 nm” value stood at 580. Besides, in data set [4], the “Layer Thickness after 1 month” value was 14.5 mm, the “Layer Thickness after 24 hrs” value is reported as 15 mm and the “Thickness Loss” value is listed as 3%. For the same molecule, in data set [2], the “Time for reaching Tmax” value stood at 16 s and the Tmax was 43.7 °C.
Turning to `COc1ccc2ccccc2c1C(=O)P(=O)(C(=O)c1c(OC)ccc2ccccc12)c1cc(C)ccc1C` [Bis-(2-methoxy-1-naphthoyl-2,5-dimethylphenylphosphineoxide], the “εmol at 400 nm” value in data set [3] worked out at 2550.
Take `COc1c(Cl)c(C(=O)P(=O)(C(=O)c2c(Cl)c(OC)c(OC)c(OC)c2Cl)c2cc(C)ccc2C)c(Cl)c(OC)c1OC` [bis-(2,6-dichloro-3,4,5-trimethoxybenzoyl)-2,5-dimethylphenylphosphine oxide]: the “εmol at 400 nm” value in data set [3] was determined as 640.
In the case of `O=C(c1c(Cl)cccc1Cl)P(=O)(C(=O)c1c(Cl)cccc1Cl)c1ccc(-c2ccccc2)cc1` [bis-(2,6-dichlorobenzoyl)-4-biphenylylphosphine oxide], in data set [3], the “εmol at 400 nm” value came out at 800.
As for `CCOc1ccc(P(=O)(C(=O)c2c(Cl)cccc2Cl)C(=O)c2c(Cl)cccc2Cl)cc1` [bis-(2,6-dichlorobenzoyl)-4-ethoxyphenylphosphine oxide], the “εmol at 400 nm” value in data set [3] worked out at 690.
Take `CCCCCCCCc1ccc(P(=O)(C(=O)c2c(Cl)cccc2Cl)C(=O)c2c(Cl)cccc2Cl)cc1` [bis-(2,6-dichlorobenzoyl)-4-octylphenylphosphine oxide]: in data set [3], the “εmol at 400 nm” value amounted to 620.
On the same count and under the same terms, under `CCCCCCCCCCP(=O)(C(=O)c1c(Cl)cccc1Cl)C(=O)c1c(Cl)cccc1Cl` [bis-(2,6-dichlorobenzoyl)decylphosphine oxide] stands 470.
In the case of `O=C(c1c(Cl)cccc1Cl)P(=O)(C(=O)c1c(Cl)cccc1Cl)c1ccccc1` [bis-(2,6-dichlorobenzoyl)phenylphosphine oxide], in data set [3], the “εmol at 400 nm” value was 607 and the “Extinction at 400 nm” value is reported as 607. In addition, in data set [4], the “Layer Thickness after 1 month” value was determined as 14.5 mm, the “Layer Thickness after 24 hrs” value was determined as 15 mm and the “Thickness Loss” value is given as 3%.
Take `COc1cccc(OC)c1C(=O)P(=O)(C(=O)c1c(OC)cccc1OC)c1cc(C)ccc1C` [bis-(2,6-dimethoxybenzoyl)-2,5-dimethylphenylphosphine oxide]: the “εmol at 400 nm” value in data set [3] was 505.
Consider `COc1cccc(OC)c1C(=O)P(=O)(C(=O)c1c(OC)cccc1OC)c1ccccc1` [bis-(2,6-dimethoxybenzoyl)phenylphosphine oxide], for which the “εmol at 400 nm” value in data set [3] came to 550.
In the case of `CCOc1ccc(P(=O)(C(=O)c2c(OC)ccc3ccccc23)C(=O)c2c(OC)ccc3ccccc23)cc1` [bis-(2-methoxy-1-naphthoyl)-4-ethoxyphenylphosphine oxide], in data set [3], the “εmol at 400 nm” value came to 2700.
Turning to `Cc1ccc2ccccc2c1C(=O)P(=O)(C(=O)c1c(C)ccc2ccccc12)c1ccc(-c2ccccc2)cc1` [bis-(2-methyl-1-naphthoyl)-4-biphenylylphosphine oxide], in data set [3], the “εmol at 400 nm” value amounted to 1680.
Same read-out and setting: as for `Cc1ccc2ccccc2c1C(=O)P(=O)(C(=O)c1c(C)ccc2ccccc12)c1ccccc1` [bis-(2-methyl-1-naphthoyl)phenylphosphine oxide], the figure is 1040.
